This note sets out measurements from patent publication EP0589039A1, “[…] DERIVATIVE AND PHARMACEUTICAL PREPARATION CONTAINING THE SAME” (Asahi Kasei Kogyo Kabushiki Kaisha, priority 1991, dated 1992).

The test system of experiment [1] is human breast cancer cell line MCF-7. Description: Growth inhibition of human breast cancer cell MCF-7 (Methylene Blue staining). The experiment is classed as cell-based. The settings on record: read-out: Growth inhibition of MCF-7 (human breast cancer cells) (IC₅₀). How it is done: (Growth inhibition of human breast cancer cell MCF-7)
Effect of the compound of the present invention on breast cancer were examined using a human breast cancer cell line MCF-7. Predetermined dilutions of each compound of the present invention were added to a 96 well microtiter plate purchased from Falcon, and the cancer cells were inoculated into each well with a inoculum size of 10³ cells per well (10⁴ cells in the case of 100 nM estrogen (E)). The thus prepared plate was supplied with RPMI 1640 medium which has been supplemented with 5% of fetal bovine serum and further with a predetermined amount of estrogen, and incubated at 37°C for 6 days (3 days in the case of 100 nM estrogen) in the presence of 5% CO₂. Thereafter, viable cells were fixed with glutaraldehyde and stained with Methylene Blue to measure absorbance at 665 nm.

The subject of experiment [2] is human breast cancer cultured cell line ZR-75-1. The experiment is described as follows: Growth inhibition of human breast cancer cultured cell line ZR-75-1 (Methylene Blue staining). The experiment is classed as cell-based. To be noted: 120 h, ZR-75-1, 10⁻⁹ mole of estrogen, 5 days, read-out: IC₅₀. How it is done: Effect of the triphenylalkene derivative of the present invention on breast cancer were examined using a human breast cancer cultured cell line ZR-75-1. Predetermined dilutions of each triphenylalkene derivative of the present invention were added to a 96 well microtiter plate purchased from Falcon, and the cancer cells were inoculated into each well with a inoculum size of 2 x 10³ cells per well. The thus prepared plate was supplied with RPMI 1640 medium which has been supplemented with 10% of fetal bovine serum and further with 10⁻⁹ mole of estrogen, and incubated at 37°C for 5 days in the presence of 5% CO₂. Thereafter, viable cells were fixed with glutaraldehyde, stained with Methylene Blue and then extracted with 0.33 N of hydrochloric acid to measure absorbance at 665 nm. […]

The test system of a further experiment is osteoporosis model rats. Description: Inhibition of decrease in bone density in ovariectomized osteoporosis model rats. The settings on record: 400 µg/kg orally once a day for 4 months. In kind it is in vivo, Fisher rats. The method, then: Effect of the compound of the present invention to inhibit decrease in the bone density was evaluated using osteoporosis model rats. […] The remaining 8 rats were subjected to sham operation and used as a control group (Group C). […] After completion of the administration, the left side femur of each rat was excised to measure its volume (V) and dry weight (W) to calculate a bone density (D) based on a formula, D = W/V [formula] . […]

The mark [3] stands for this setting: MCF7, 144 h, 1 nM added amount of E (estrogen), 6 days.
Setting [4] is: MCF7, 72 h, 100 nM added amount of E (estrogen), 3 days, 10⁴ cells per well.
The mark [5] stands for this setting: MCF7, 144 h, 0.1 nM added amount of E (estrogen), 6 days.

Where two headings read alike, the source gives them in different places.

Turning to `CCNCC(O)COc1ccc(C(=C(CC)c2ccc3c(c2)OCO3)c2ccc(O)cc2)cc1` (stereo not drawn) [Compound 11, (E·Z)-1-[4-(3-ethylamino-2-hydroxypropoxy)-phenyl]-1-(4-hydroxyphenyl)-2-(3,4-methylenedioxyphenyl)-1-butene], the IC50 was 50 nM in experiment [1] (setting [3]) and 1600 nM in experiment [2].
Regarding `CCC(=C(c1ccc(O)cc1)c1ccc(OCCNC2CCCCC2)cc1)c1ccc2c(c1)OCO2` [Compound 19, (E·Z)-1-[4-(2-cyclohexylaminoethoxy)phenyl]-1-(4-hydroxyphenyl)-2-(3,4-methylenedioxyphenyl)-1-butene], the IC50 in experiment [1] (setting [3]) amounted to 160 nM.
Consider `CCC(=C(c1ccc(OCC(CN(C)C)OC(C)=O)cc1)c1ccc(OC(C)=O)cc1)c1ccc2c(c1)OCO2` (stereo not drawn) [Compound 15, (E·Z)-1-[4-(3-dimethylamino-2-acetoxypropoxy)-phenyl]-1-(4-acetoxyphenyl)-2-(3,4-methylenedioxyphenyl)-1-butene], for which the IC50 in experiment [1] (setting [3]) was 310 nM.
The same measure, in the same setting: then `CCC(=C(c1ccccc1)c1ccc(OC(CN(C)C)CN(C)C)cc1)c1ccccc1` [Compound 35], with 1900 nM; and `CC/C(=C(\c1ccccc1)c1ccc(OCC(O)CN(C)C)cc1)c1ccc2c(c1)OCO2` (stereo not drawn) [Compound 6, (Z)-1-[4-(3-dimethylamino-2-hydroxypropoxy)-phenyl]-1-phenyl-2-(3,4-methylenedioxyphenyl)-1-butene], with 1800 nM.
On the same count and under the same terms, then `CCC(=C(c1ccc(O)cc1)c1ccc(OCC(O)CN(C)C2CCCCC2)cc1)c1ccc2c(c1)OCO2` (stereo not drawn) [Compound 4, (E·Z)-1-[4-(3-cyclohexylmethylamino-2-hydroxypropoxy)phenyl]-1-(4-hydroxyphenyl)-2-(3,4-methylenedioxyphenyl)-1-butene], with 210 nM.
In the case of `CCC(=C(c1ccc(OCOC)cc1)c1ccc(OCC(O)CN(C)C)cc1)c1ccc2c(c1)OCO2` (stereo not drawn) [Compound 32], the IC50 in experiment [1] (setting [4]) was determined as 3800 nM.
As for `CCC(=C(c1ccc(O)cc1)c1ccc(OCC(O)CNC2CCCCC2)cc1)c1ccccc1` (stereo not drawn) [Compound 8, (E·Z)-1-[4-(3-cyclohexylamino-2-hydroxypropoxy)-phenyl]-1-(4-hydroxyphenyl)-2-phenyl-1-butene], the IC50 in experiment [1] (setting [3]) came to 620 nM; in experiment [2] it was 1400 nM.
For `CC/C(=C(\c1ccccc1)c1ccc(OCC(O)CNC2CCCCC2)cc1)c1ccccc1` (stereo not drawn) [Compound 12, (Z)-1-[4-(3-cyclohexylamino-2-hydroxypropoxy)-phenyl]-1,2-diphenyl-1-butene], in that order: 1200 nM and 1400 nM.
For `CCC(=C(c1ccc(O)cc1)c1ccc(OCC(O)CN(CC)CC)cc1)c1ccc2c(c1)OCO2` (stereo not drawn) [Compound 2, (E·Z)-1-[4-(3-diethylamino-2-hydroxypropoxy)-phenyl]-1-(4-hydroxyphenyl)-2-(3,4-methylenedioxyphenyl)-1-butene], the IC50 in experiment [1] (setting [3]) is 60 nM.
Turning to `CCC(=C(c1ccccc1)c1ccc(OCC(O)CNC2CCCCC2)cc1)c1ccccc1` (stereo not drawn) [Compound 39], the IC50 in experiment [1] (setting [4]) was 5600 nM.
For `CCC(=C(c1ccccc1)c1ccc(OCC(O)CN(C)C)cc1)c1ccc2c(c1)OCO2` (stereo not drawn) [Compound 34], the values for the IC50 in experiment [1] (setting [4]) and in experiment [1] (setting [3]) were 10200 nM and 6300 nM, respectively.
With `CCC(=C(c1ccc(OCCN(C)C)cc1)c1cccc(C=NO)c1)c1ccccc1` [Compound 23, 2-[4-[1-(3-hydroxyiminomethylphenyl)-2-phenyl-1-butenyl]phenoxy]-N,N-dimethylamine], the IC50 in experiment [1] (setting [3]) came to 6800 nM.
On the same count and under the same terms, with `CCC(=C(c1ccc(C=NOC)cc1)c1ccc(OCCN(C)C)cc1)c1ccccc1` [Compound 22, 2-[4-[1-(4-methoxyiminomethylphenyl)-2-phenyl-1-butenyl]phenoxy]-N,N-dimethylamine] the figure was 7100 nM; with `CCC(=C(c1ccccc1)c1ccc(OC(CN(CC)CC)CN(CC)CC)cc1)c1ccccc1` [Compound 36], 1600 nM.
On to `CCC(=C(c1ccc(O)cc1)c1ccc(OCC(O)CN(C)C)cc1)c1ccc2c(c1)OCO2` (stereo not drawn) [Compound 1, (E·Z)-1-[4-(3-dimethylamino-2-hydroxypropoxy)-phenyl]-1-(4-hydroxyphenyl)-2-(3,4-methylenedioxyphenyl)-1-butene], for which the “inhibition of decrease in the bone density caused by the ovariectomy” value in the experiment with osteoporosis model rats (compared with Tamoxifen) is recorded as “significantly inhibited decrease in the bone density”. The compound also came in with a Bone density with osteoporosis model rats (left femur, D = W/V, ovariectomized rats) of 1.0312.
In the case of `CCC(=C(c1ccc(O)cc1)c1ccc(OCC(O)CN(C)C)cc1)c1ccccc1` (stereo not drawn) [Compound 7, (E·Z)-1-[4-(3-dimethylamino-2-hydroxypropoxy)-phenyl]-1-(4-hydroxyphenyl)-2-phenyl-1-butene], the IC50 in experiment [1] (setting [3]) was determined as 210 nM.
The same measure, in the same setting: then `CCC(=C(c1ccc(O)cc1)c1ccc(OC(CN(CC)CC)CN(CC)CC)cc1)c1ccc2c(c1)OCO2` [Compound 37], with 60 nM.
Turning to `CCC(=C(c1ccc(O)cc1)c1ccc(OCC(O)CN(C)CC)cc1)c1ccc2c(c1)OCO2` (stereo not drawn) [Compound 3, (E·Z)-1-[4-(3-ethylmethylamino-2-hydroxypropoxy)phenyl]-1-(4-hydroxyphenyl)-2-(3,4-methylenedioxyphenyl)-1-butene], the IC50 in experiment [1] (setting [3]) came to 100 nM.
`CCC(=C(c1ccccc1)c1ccc(OCC(O)CNC2CCC2)cc1)c1ccccc1` (stereo not drawn) [Compound 41]: the IC50 in experiment [1] (setting [4]) was determined as 3400 nM.
Regarding `CCC(=C(c1ccc(O)cc1)c1ccc(OCC(O)CNC)cc1)c1ccc2c(c1)OCO2` (stereo not drawn) [Compound 10, (E·Z)-1-[4-(3-methylamino-2-hydroxypropoxy)-phenyl]-1-(4-hydroxyphenyl)-2-(3,4-,methylenedioxyphenyl)-1-butene], the IC50 in experiment [1] (setting [3]) turned out to be 500 nM; in experiment [2] it was 870 nM.
For the compound `CCC(=C(c1ccc(C=NO)cc1)c1ccc(OCCN(C)C)cc1)c1ccccc1` [Compound 21, 2-[4-[1-(4-hydroxyiminomethylphenyl)-2-phenyl-1-butenyl]phenoxy]-N,N-dimethylethylamine], in experiment [1] (setting [3]), the IC50 amounted to 4600 nM.
For the compound `CCC(=C(c1ccccc1)c1ccc(OCC(O)CNC2CCCC2)cc1)c1ccccc1` (stereo not drawn) [Compound 40], the IC50 in experiment [1] (setting [4]) amounted to 2700 nM.
Consider `CCC(=C(c1ccccc1)c1ccc(OCC(O)CNC2CCCCC2)cc1)c1ccc2c(c1)OCO2` (stereo not drawn) [Compound 38], for which the IC50 in experiment [1] (setting [5]) was 210 nM.
Same read-out and setting: then `CC/C(=C(\c1ccccc1)c1ccc(OCC(O)CNC(C)C)cc1)c1ccccc1` (stereo not drawn) [Compound 14, (Z)-1-[4-(3-isopropylamino-2-hydroxypropoxy)-phenyl]-1,2-diphenyl-1-butene], with 410 nM.
On to `CCC(=C(c1ccc(O)cc1)c1ccc(OCCN(C)C)cc1)c1ccc2c(c1)OCO2` [Compound 20, (E·Z)-1-[4-(2-dimethylaminoethoxy)phenyl]-1-(4-hydroxyphenyl)-2-(3,4-methylenedioxyphenyl)-1-butene], for which the IC50 in experiment [1] (setting [3]) stood at 190 nM.
On to `CCC(=C(c1ccc(O)cc1)c1ccc(OCC(O)CNC2CCCCC2)cc1)c1ccc2c(c1)OCO2` (stereo not drawn) [Compound 9, (E·Z)-1-[4-(3-cyclohexylamino-2-hydroxypropoxy)-phenyl]-1-(4-hydroxyphenyl)-2-(3,4-,methylenedioxyphenyl)-1-butene], for which the IC50 in experiment [1] (setting [3]) is 460 nM; in experiment [2], 950 nM.
Consider `CCC(=C(c1ccccc1)c1ccc(OCC(O)CN(C)CC)cc1)c1ccc2c(c1)OCO2` (stereo not drawn) [Compound 33], for which the IC50 in experiment [1] (setting [5]) is 600 nM.
Take `CCC(=C(c1ccccc1)c1ccc(OCC(O)CN(C)C)cc1)c1ccccc1` (stereo not drawn) [Compound 30]: the IC50 in experiment [1] (setting [3]) turned out to be 3300 nM.
Still for that read-out and setting: then `CCNCC(O)COc1ccc(/C(=C(/CC)c2ccccc2)c2ccccc2)cc1` (stereo not drawn) [Compound 13, (Z)-1-[4-(3-ethylamino-2-hydroxypropoxy)phenyl]-1,2-diphenyl-1-butene], with 5400 nM; and `CCC(=C(c1ccc(O)cc1)c1ccc(OC(CN(C)C)CN(C)C)cc1)c1ccc2c(c1)OCO2` [Compound 18, (E·Z)-1-[4-(1,3-bisdimethylamino-2-propoxy)-phenyl]-1-(4-hydroxyphenyl)-2-(3,4-methylenedioxyphenyl)-1-butene], with 430 nM.
On to `CCC(=C(c1ccc(O)cc1)c1ccc(OCC(CN(C)C)OC(C)=O)cc1)c1ccc2c(c1)OCO2` (stereo not drawn) [Compound 16, (E·Z)-1-[4-(3-dimethylamino-2-acetoxypropoxy)-phenyl]-1-(4-hydroxyphenyl)-2-(3,4-methylenedioxyphenyl)-1-butene], for which the IC50 in experiment [1] (setting [3]) was 160 nM.
